Test results as given in PubChem BioAssay (NCI).
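Dose response: 5 concentrations. Exposure: 48 h. Format: 96-well plates. Endpoint: linear interpolation; highest concentration if not reached. Abbreviation: GI50, concentration required for 50% inhibition of growth. TGI denotes the concentration required for complete inhibition of growth.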

Tests used:
Test in all cases: DTP human tumour cell line panel, 48 h
HCC-2998 colon = system: HCC-2998 colon
M14 melanoma = system: M14 melanoma
NCI-H460 lung = system: NCI-H460 lung
OVCAR-4 ovarian = system: OVCAR-4 ovarian
SF-539 CNS = system: SF-539 CNS
SR leukemia = system: SR leukemia
MCF7 breast = system: MCF7 breast
MDA-MB-231 breast = system: MDA-MB-231 breast
HL-60(TB) leukemia = system: HL-60(TB) leukemia

Compound	TGI (HCC-2998 colon)	TGI (M14 melanoma)	TGI (NCI-H460 lung)	TGI (OVCAR-4 ovarian)	TGI (SF-539 CNS)	TGI (SR leukemia)	GI50 (HCC-2998 colon)	GI50 (M14 melanoma)	GI50 (MCF7 breast)	TGI (MCF7 breast)	GI50 (MDA-MB-231 breast)	TGI (MDA-MB-231 breast)	GI50 (NCI-H460 lung)	GI50 (OVCAR-4 ovarian)	GI50 (SF-539 CNS)	GI50 (SR leukemia)	TGI (HL-60(TB) leukemia)	GI50 (HL-60(TB) leukemia)
O=C(Nc1ccccc1-c1n[nH]c(=S)[nH]c1=O)C(F)(F)F	> 100 µM	> 100 µM	> 100 µM	> 100 µM	> 100 µM	> 100 µM	–	–	–	–	–	–	–	–	–	–	–	–
COc1ccc(-c2cc(-c3cc(Cl)ccc3Cl)nc3n[nH]c(N)c23)cc1	34.6 µM	> 100 µM	39.3 µM	> 100 µM	59 µM	52.5 µM	15.2 µM	29.5 µM	3.45 µM	> 100 µM	34 µM	> 100 µM	6.68 µM	15.6 µM	25.2 µM	10.1 µM	–	–
Cc1ccccc1NC(=O)C(=O)C(C#N)c1ccc(Cl)cc1 (configuration not stated)	75.9 µM	> 100 µM	56 µM	–	83.5 µM	–	–	–	–	–	–	–	–	–	–	–	> 100 µM	–
O=C(Nc1ccc(Cl)cc1Cl)C1C(=O)N(c2ccc(Cl)cc2Cl)C(=O)/C1=N\Nc1ccc([N+](=O)[O-])cc1[N+](=O)[O-] (configuration not stated)	> 100 µM	> 100 µM	> 100 µM	> 100 µM	> 100 µM	–	–	–	–	–	–	–	–	–	–	–	> 100 µM	–
NCCNc1c2c(c(NCCN)c3c(CO)c[nH]c13)C(=O)c1ccccc1C2=O	52.3 µM	> 100 µM	> 100 µM	> 100 µM	39.3 µM	–	7.14 µM	25.3 µM	5.59 µM	82 µM	15.5 µM	51.4 µM	25.7 µM	38.3 µM	3.89 µM	–	> 100 µM	43.4 µM
COc1cc(/C=C/c2ccncc2)cc(OC)c1OC	–	> 100 µM	> 100 µM	> 100 µM	> 100 µM	–	–	–	–	–	–	–	–	–	–	–	97.8 µM	–
O=C(O)C/C(=C\c1ccco1)C(=O)O	–	> 100 µM	–	> 100 µM	> 100 µM	> 100 µM	–	–	–	> 100 µM	–	> 100 µM	–	–	–	–	> 100 µM	–
FC(F)(F)c1nc(N2CCCC2)ncc1-c1nnnn1-c1ccc(Cl)cc1	72.2 µM	55.3 µM	90.2 µM	74.8 µM	> 100 µM	6.24 µM	26.7 µM	20.2 µM	14.3 µM	> 100 µM	24.6 µM	> 100 µM	11.7 µM	6.7 µM	39.8 µM	2.53 µM	–	–
CC1CC[C@]2(C(=O)O)CCC3(COC(=O)/C=C\c4ccc(O)cc4)C(=CCC4[C@@]5(C)CC[C@H](O)C(C)(C)C5CC[C@]43C)[C@@H]2[C@H]1C (some centres not stated)	33 µM	37.7 µM	35.5 µM	> 100 µM	31.3 µM	76.1 µM	–	–	–	–	–	–	–	–	–	–	72.8 µM	–
Cc1ccc(NC(=O)c2cc3cc(N=Nc4ccc(Br)cc4)ccc3oc2=O)cc1	> 100 µM	–	> 100 µM	> 100 µM	–	> 100 µM	–	–	–	–	–	–	–	–	–	–	> 100 µM	–
Cc1ccc(S(=O)(=O)OC2CCN(C)CC2)cc1	–	> 100 µM	> 100 µM	> 100 µM	> 100 µM	49.9 µM	–	–	–	> 100 µM	–	> 100 µM	–	–	–	–	37.3 µM	–
